Measured values as given in patent US12466800B2, “N-((1,2,3,5,6,7-hexahydro-S-indacen-4-yl)carbamoyl)-4, 5, 6, 7-tetrahydrobenzofuran-2-sulfonamide derivatives and related compounds as NLPR3 modulators for the treatment of multiple sclerosis (MS)” (Zomagen Biosciences Ltd, priority 2019, dated 2025).

These molecules were tested on IL-1b (assay: Mouse BMDM IL-1b Assay). Details: Macrophage; mouse bone marrow derived macrophages (C57BL6); 200 ng/mL LPS 3 h, compound 30 min, 5 mM ATP 45 min; IL-1b ELISA of supernatant.
Type: cell-based
Method: Example 20: Mouse BMDM IL-1b Assay
Mouse bone marrow cells from C57BL6 tibia and femur were culture in complete Isocov's Media supplemented with 20 ng/mL MCSF (BMDM media) at a density of 50 million cells/15 cm Petri dish. Fresh media was changed every 3 days, and bone marrow derived macrophages were collected, washed, and counted on day 7. Cells were seeded into 96 well plates at a density of 5×10^4 cells per well in 100 uL of BMDM media and cultured overnight. The cells were stimulated at 37° C. with 200 ng/mL Ultrapure LPS-B5 for 3 hours before pre-diluted compounds were added. 30 minutes after compound addition, 5 mM ATP was added for the secondary stimulation for 45 minutes. After stimulation, the plates were briefly spun down, and 50 uL of supernatant was harvested from each well. ELISA for mouse IL-1b was performed with 1:10 and 1:100 diluted supernatant using pre-coated kits. IL-1b concentrations were calculated based on pre-titrated standards, and compound inhibition IC50 is generated using the Levenberg Marquardt damped lease-square method.

Row | IC50 | Compound
1 | 100 to 1000 nM | CC1(O)CCCc2oc(S(=O)(=O)NC(=O)Nc3c4c(c(C#N)c5c3CCC5)CCC4)cc21 (stereo not drawn) [Compound 53, N-((8-cyano-1,2,3,5,6,7-hexahydro-s-indacen-4-yl)carbamoyl)-4-hydroxy-4-methyl-4,5,6,7-tetrahydrobenzofuran-2-sulfonamide]
2 | < 100 nM | CC(C)c1cc(F)cc(C(C)C)c1NC(=O)NS(=O)(=O)c1cc2c(o1)CCCC2(C)O (stereo not drawn) [Compound 64, N-((4-fluoro-2,6-diisopropylphenyl)carbamoyl)-4-hydroxy-4-methyl-4,5,6,7-tetrahydrobenzofuran-2-sulfonamide]
3 | < 100 nM | CC1(C)Cc2oc(S(=O)(=O)NC(=O)Nc3c4c(cc5c3CCC5)CCC4)cc2C(C)(O)C1 (stereo not drawn) [Compound 20, N-((1,2,3,5,6,7-hexahydro-s-indacen-4-yl)carbamoyl)-4-hydroxy-4,6,6-trimethyl-4,5,6,7-tetrahydrobenzofuran-2-sulfonamide]
4 | 100 to 1000 nM | O=C(Nc1c2c(c(Br)c3c1CCC3)CCC2)NS(=O)(=O)c1cc2c(o1)CCC/C2=N/O [Compound 82, (Z)-N-((8-bromo-1,2,3,4,5,6,7-hexahydro-s-indacen-4-yl)carbamoyl)-4-(hydroxyimino)-4,5,6,7-tetrahydrobenzofuran-2-sulfonamide]
5 | 100 to 1000 nM | CN1CCCc2oc(S(=O)(=O)NC(=O)Nc3c4c(cc5c3CCC5)CCC4)cc2C1=O [Compound 57, N-((1,2,3,5,6,7-hexahydro-s-indacen-4-yl)carbamoyl)-5-methyl-4-oxo-5,6,7,8-tetrahydro-4H-furo[3,2-c]azepine-2-sulfonamide]
6 | 100 to 1000 nM | CC(C)c1ccc(Cl)c(C(C)C)c1NC(=O)NS(=O)(=O)c1cc2c(o1)CCC/C2=N\O [Compound 80, (E)-N-((3-chloro-2,6-diisopropylphenyl)carbamoyl)-4-(hydroxyimino)-4,5,6,7-tetrahydrobenzofuran-2-sulfonamide]
7 | < 100 nM | Cc1c2c(c(NC(=O)NS(=O)(=O)c3cc4c(o3)CCCC4(C)O)c3c1CCC3)CCC2 (stereo not drawn) [Compound 51, 4-hydroxy-4-methyl-N-((8-methyl-1,2,3,5,6,7-hexahydro-s-indacen-4-yl)carbamoyl)-4,5,6,7-tetrahydrobenzofuran-2-sulfonamide]
8 | 100 to 1000 nM | CC(=O)NC1CCCc2oc(S(=O)(=O)NC(=O)Nc3c4c(c(Br)c5c3CCC5)CCC4)cc21 (stereo not drawn) [Compound 42, N-(2-(N-((8-bromo-1,2,3,5,6,7-hexahydro-s-indacen-4-yl)carbamoyl)sulfamoyl)-4,5,6,7-tetrahydrobenzofuran-4-yl)acetamide]
9 | < 100 nM | O=C(Nc1c2c(cc3c1CCC3)CCC2)NS(=O)(=O)c1cc2c(o1)CCCC2(O)C(F)(F)F (stereo not drawn) [Compound 56, N-((1,2,3,5,6,7-hexahydro-s-indacen-4-yl)carbamoyl)-4-hydroxy-4-(trifluoromethyl)-4,5,6,7-tetrahydrobenzofuran-2-sulfonamide]
10 | < 100 nM | CN1CCc2oc(S(=O)(=O)NC(=O)Nc3c4c(cc5c3CCC5)CCC4)cc2C1 [Compound 115, N-((1,2,3,5,6,7-hexahydro-s-indacen-4-yl)carbamoyl)-5-methyl-4,5,6,7-tetrahydrofuro[3,2-c]pyridine-2-sulfonamide]
11 | 100 to 1000 nM | CC(C)c1cc(Br)cc(C(C)C)c1NC(=O)NS(=O)(=O)c1cc2c(o1)CCCC2(C)O (stereo not drawn) [Compound 70, N-((4-bromo-2,6-diisopropylphenyl)carbamoyl)-4-hydroxy-4-methyl-4,5,6,7-tetrahydrobenzofuran-2-sulfonamide]
12 | 100 to 1000 nM | CC1Cc2oc(S(=O)(=O)NC(=O)Nc3c4c(cc5c3CCC5)CCC4)cc2C(O)C1 (stereo not drawn) [Compound 18, N-((1,2,3,5,6,7-hexahydro-s-indacen-4-yl)carbamoyl)-4-hydroxy-6-methyl-4,5,6,7-tetrahydrobenzofuran-2-sulfonamide]
13 | 100 to 1000 nM | CC(C)c1ccc(Cl)c(C(C)C)c1NC(=O)NS(=O)(=O)c1cc2c(o1)CCCC2(C)O (stereo not drawn) [Compound 66, N-((3-chloro-2,6-diisopropylphenyl)carbamoyl)-4-hydroxy-4-methyl-4,5,6,7-tetrahydrobenzofuran-2-sulfonamide]
14 | 100 to 1000 nM | CC1CC(=O)c2cc(S(=O)(=O)NC(=O)Nc3c4c(cc5c3CCC5)CCC4)oc2C1 (stereo not drawn) [Compound 17, N-((1,2,3,5,6,7-hexahydro-s-indacen-4-yl)carbamoyl)-6-methyl-4-oxo-4,5,6,7-tetrahydrobenzofuran-2-sulfonamide]
15 | 100 to 1000 nM | CC(C)c1ccc(F)c(C(C)C)c1NC(=O)NS(=O)(=O)c1cc2c(o1)CCCC2O (stereo not drawn) [Compound 67, N-((3-fluoro-2,6-diisopropylphenyl)carbamoyl)-4-hydroxy-4,5,6,7-tetrahydrobenzofuran-2-sulfonamide]
16 | 100 to 1000 nM | O=C(Nc1c2c(cc3c1CCC3)CCC2)NS(=O)(=O)c1cc2c(o1)CCCNC2=O [Compound 38, N-((1,2,3,5,6,7-hexahydro-s-indacen-4-yl)carbamoyl)-4-oxo-5,6,7,8-tetrahydro-4H-furo[3,2-c]azepine-2-sulfonamide]
17 | 100 to 1000 nM | CC(C)c1ccc(F)c(C(C)C)c1NC(=O)NS(=O)(=O)c1cc2c(o1)CCCCC2(C)O (stereo not drawn) [Compound 110, N-((3-fluoro-2,6-diisopropylphenyl)carbamoyl)-4-hydroxy-4-methyl-5,6,7,8-tetrahydro-4H-cyclohepta[b]furan-2-sulfonamide]
18 | < 100 nM | C=CCC1(O)c2cc(S(=O)(=O)NC(=O)Nc3c4c(cc5c3CCC5)CCC4)oc2CCC1(C)C (stereo not drawn) [Compound 88, 4-allyl-N-((1,2,3,5,6,7-hexahydro-s-indacen-4-yl)carbamoyl)-4-hydroxy-5,5-dimethyl-4,5,6,7-tetrahydrobenzofuran-2-sulfonamide]
19 | < 100 nM | O=C(Nc1c2c(c(F)c3c1CCC3)CCC2)NS(=O)(=O)c1cc2c(o1)CCC/C2=N\O [Compound 90, (E)-N-((8-fluoro-1,2,3,5,6,7-hexahydro-s-indacen-4-yl)carbamoyl)-4-(hydroxyimino)-4,5,6,7-tetrahydrobenzofuran-2-sulfonamide]
20 | < 100 nM | O=C(Nc1c2c(c(F)c3c1CCC3)CCC2)NS(=O)(=O)c1cc2c(o1)CCCCC2O (stereo not drawn) [Compound 116, N-((8-fluoro-1,2,3,5,6,7-hexahydro-s-indacen-4-yl)carbamoyl)-4-hydroxy-5,6,7,8-tetrahydro-4H-cyclohepta[b]furan-2-sulfonamide]
21 | < 100 nM | CC(C)c1cc(Cl)cc(C(C)C)c1NC(=O)NS(=O)(=O)c1cc2c(o1)CCCCC2(C)O (stereo not drawn) [Compound 122, N-((4-chloro-2,6-diisopropylphenyl)carbamoyl)-4-hydroxy-4-methyl-5,6,7,8-tetrahydro-4H-cyclohepta[b]furan-2-sulfonamide]
22 | 100 to 1000 nM | O=C(Nc1c2c(cc3c1CCC3)CCC2)NS(=O)(=O)c1cc2c(o1)CCCc1c[nH]nc1-2 [Compound 33, N-((1,2,3,5,6,7-hexahydro-s-indacen-4-yl)carbamoyl)-2,4,5,6-tetrahydrofuro[2′,3′:6,7]cyclohepta[1,2-c]pyrazole-8-sulfonamide]
23 | < 100 nM | CC(C)c1cc(Cl)cc(C(C)C)c1NC(=O)NS(=O)(=O)c1cc2c(o1)CCCC2(C)O (stereo not drawn) [Compound 62, N-((4-chloro-2,6-diisopropylphenyl)carbamoyl)-4-hydroxy-4-methyl-4,5,6,7-tetrahydrobenzofuran-2-sulfonamide]
24 | 100 to 1000 nM | CC(C)c1cc(C#N)cc(C(C)C)c1NC(=O)NS(=O)(=O)c1cc2c(o1)CCCC2(C)O (stereo not drawn) [Compound 72, N-((4-cyano-2,6-diisopropylphenyl)carbamoyl)-4-hydroxy-4-methyl-4,5,6,7-tetrahydrobenzofuran-2-sulfonamide]
25 | 100 to 1000 nM | CC(C)c1ccc(Cl)c(C(C)C)c1NC(=O)NS(=O)(=O)c1cc2c(o1)CCC/C2=N/O [Compound 79, (Z)-N-((3-chloro-2,6-diisopropylphenyl)carbamoyl)-4-(hydroxyimino)-4,5,6,7-tetrahydrobenzofuran-2-sulfonamide]
26 | < 100 nM | O=C(Nc1c2c(c(Br)c3c1CCC3)CCC2)NS(=O)(=O)c1cc2c(o1)CCCC2O (stereo not drawn) [Compound 39, N-((8-bromo-1,2,3,5,6,7-hexahydro-s-indacen-4-yl)carbamoyl)-4-hydroxy-4,5,6,7-tetrahydrobenzofuran-2-sulfonamide]
27 | 1000 to 10000 nM | CC(C)c1cccc(C(C)C)c1NC(=O)NS(=O)(=O)c1cc2c(o1)CCC/C2=N\O [Compound 81, (E)-N-((2,6-diisopropylphenyl)carbamoyl)-4-(hydroxyimino)-4,5,6,7-tetrahydrobenzofuran-2-sulfonamide]
28 | < 100 nM | O=C(Nc1c2c(c(F)c3c1CCC3)CCC2)NS(=O)(=O)c1cc2c(o1)CCCC2O (stereo not drawn) [Compound 46, N-((8-fluoro-1,2,3,5,6,7-hexahydro-s-indacen-4-yl)carbamoyl)-4-hydroxy-4,5,6,7-tetrahydrobenzofuran-2-sulfonamide]
29 | 100 to 1000 nM | CN1CCc2oc(S(=O)(=O)NC(=O)Nc3c4c(cc5c3CCC5)CCC4)cc2C1=O [Compound 112, N-((1,2,3,5,6,7-hexahydro-s-indacen-4-yl)carbamoyl)-5-methyl-4-oxo-4,5,6,7-tetrahydrofuro[3,2-c]pyridine-2-sulfonamide]
30 | 100 to 1000 nM | CC1(O)CCCc2oc(S(=O)(=O)NC(=O)Cc3c4c(cc5c3CCC5)CCC4)cc21 (stereo not drawn) [Compound 58, 2-(1,2,3,5,6,7-hexahydro-s-indacen-4-yl)-N-((4-hydroxy-4-methyl-4,5,6,7-tetrahydrobenzofuran-2-yl)sulfonyl)acetamide]
